These results are taken from patent US20210000844A1, “OPHTHALMIC COMPOSITION COMPRISING DIQUAFOSOL AND CATIONIC POLYMER” (Santen Pharmaceutical Co., Ltd., priority 2018, published 2021).

The subject of the assay is Cultured peripheral nerve cells (dorsal neuro ganglion neuron). As to the kind of experiment: Test 4: stimulatory property of diquafosol sodium to peripheral nerves (intracellular calcium fluorescence). It is filed as cell-based. Conditions: stimulation control group (buffer solution instead of formulation solution); diquafosol sodium final concentration 0.3%. As to the method: The stimulatory property of diquafosol sodium to peripheral nerves in the presence of PVP which is a type of […] was examined. “PVP” denotes polyvinylpyrrolidone. “CMC-Na” denotes carboxymethylcellulose sodium. “HPMC” denotes hydroxypropylmethylcellulose. “CVP” denotes a carboxyvinyl polymer.
Cultured peripheral nerve cells (dorsal neuro ganglion neuron; purchased from Lonza Japan Ltd.) were incubated in a buffer solution containing an intracellular calcium indicator fluorescent dye (FLIPR Calcium 6 Assay Kit; Molecular Devices, LLC). 40% of the total amount of the buffer solution was replaced by each of the above-described formulation solutions. A non-stimulation group and a stimulation control group were similarly treated with the buffer solution instead of the formulation solution. The cells were left standing at room temperature, followed by starting fluorescence measurement over time with the calcium indicator dye using a fluorescence plate reader. 60 seconds after the start of the measurement, diquafosol sodium (final concentration: 0.3%) was added, and the measurement of fluorescence intensity was continued.
The maximum fluorescence intensity (RFUmax) after addition of diquafosol sodium was calculated as a relative value against the fluorescence intensity (RFU) immediately before the addition, with the fluorescence intensity (RFU) defined as 100%.
(Calcium flux is commonly read through the fluorescence of an indicator in the cells.)

Some results are limits rather than exact numbers.

`O=c1ccn([C@@H]2O[C@H](COP(=O)([O-])OP(=O)([O-])OP(=O)([O-])OP(=O)([O-])OC[C@H]3O[C@@H](n4ccc(=O)[nH]c4=O)[C@H](O)[C@@H]3O)[C@@H](O)[C@H]2O)c(=O)[nH]1.[Na+].[Na+].[Na+].[Na+]` [diquafosol sodium, diquafosol tetrasodium salt]: the “maximum fluorescence intensity (RFUmax) after addition of diquafosol sodium” value is reported as no less than 103.5%.
